According to ChEMBL document CHEMBL1153753, “Structure-activity relationships and mechanism of action of antitumor bis 8-hydroxyquinoline substituted benzylamines” (Eur J Med Chem, 2010):
The source made the active and inactive calls. The rule behind the calls is not given here.

What was measured:
[1] = Cytotoxicity against human KB3 cells after 72 hrs by MTS assay; format: functional; settings: KB3, 72 h
[2] = Antiproliferative activity against human U87 cells expressing GFP after 3 days by flash-cytometry; format: functional, U-87MG ATCC; settings: U-87 MG, 72 h, read-out: ED50 (the source's name)
A549 = test: Cytotoxicity against human A549 cells by MTT assay; format: functional, cell-based
BXPC-3 = test: Cytotoxicity against human BxPC3 cells by MTT assay; format: functional, cell-based
LoVo = test: Cytotoxicity against human LoVo cells by MTT assay; format: functional, cell-based
MCF7 = test: Cytotoxicity against human MCF7 cells by MTT assay; format: functional, cell-based
PC-3 = test: Cytotoxicity against human PC3 cells by MTT assay; format: functional, cell-based
[3] = Cytotoxicity against human Hs683 cells by MTT assay; format: functional, cell-based; settings: Hs 683
T98G = test: Cytotoxicity against human T98G cells by MTT assay; format: functional, cell-based
[4] = Cytotoxicity against human U373 cells by MTT assay; format: functional, cell-based, U-373MG ATCC; settings: U373 MG
Nucleic Acid [5] = test: Binding affinity to calf thymus DNA at 2 to 100 uM by standard spectrometry; format: nucleic-acid assay; settings: Bos taurus
Nucleic Acid [6] = test: Binding affinity to calf thymus DNA at 2 to 100 uM by EMSA; format: nucleic-acid assay; settings: Bos taurus
Nucleic Acid [7] = test: Binding affinity to calf thymus DNA assessed as DNA cleavage at 2 to 100 uM by electrophoresis; format: nucleic-acid assay; settings: Bos taurus
Nucleic Acid [8] = test: Binding affinity to calf thymus DNA assessed as DNA alkylation at 2 to 100 uM after 24 hrs; format: nucleic-acid assay; settings: Bos taurus
[9] = Cytotoxicity against human KB3-1 cells assessed as reduction of glutathione level after 72 hrs by MTT assay pretreated with buthionin sulfoximine; format: functional; settings: KB 3-1
[10] = Cytotoxicity against human KB3-1 cells assessed as reduction of glutathione level after 72 hrs by MTT assay; format: functional; settings: KB 3-1, 72 h

| SMILES | CC50 [1] [µM] | EC50 [2] [µM] | IC50 (A549) [µM] | IC50 (BXPC-3) [µM] | IC50 (LoVo) [µM] | IC50 (MCF7) [µM] | IC50 (PC-3) [µM] | IC50 [3] [µM] | IC50 (T98G) [µM] | IC50 [4] [µM] | also measured |
| --- | --- | --- | --- | --- | --- | --- | --- | --- | --- | --- | --- |
| Oc1ccc(CN(CCN2CCCC2)Cc2ccc(O)c3ncccc23)c2cccnc12 | 1 | 0.2 |  |  |  |  |  |  |  |  |  |
| Oc1ccc(CN(Cc2ccc(O)c3ncccc23)CC2CCCO2)c2cccnc12 (configuration not stated) | 10 | 5 |  |  |  |  |  |  |  |  |  |
| Oc1ccc(CN(Cc2ccc(C(F)(F)F)cc2)Cc2cccc3ncccc23)c2cccnc12 | 10 | > 10 |  |  |  |  |  |  |  |  |  |
| Oc1ccc(CN(Cc2cc(C(F)(F)F)cc(C(F)(F)F)c2)Cc2ccc(O)c3ncccc23)c2cccnc12 | 1 | < 0.2 | 0.009 | 0.079 | 0.01 | 0.038 | 0.071 | 0.181 | 0.072 | 0.096 |  |
| Oc1ccc(CN(Cc2ccccc2)Cc2ccc(O)c3ncccc23)c2cccnc12 | 0.02 | < 0.5 | 0.544 | 7.44 | 0.091 | 0.097 | 0.258 | 0.076 | 0.249 | 0.357 |  |
| Oc1ccc(CN(Cc2ccccc2)Cc2ccccc2)c2cccnc12 | 1 | 5 |  |  |  |  |  |  |  |  |  |
| Oc1ccc(CN(CCc2ccccn2)Cc2ccc(O)c3ncccc23)c2cccnc12 | > 10 |  |  |  |  |  |  |  |  |  |  |
| Cn1cccc1CN(Cc1ccc(O)c2ncccc12)Cc1ccc(O)c2ncccc12 |  | 2 |  |  |  |  |  |  |  |  |  |
| CC(C)(C)OC(=O)N(Cc1ccc(C(F)(F)F)cc1)Cc1ccc(O)c2ncccc12 | 10 | 2 |  |  |  |  |  |  |  |  |  |
| CC(C)(C)OC(=O)N(Cc1cc(C(F)(F)F)cc(C(F)(F)F)c1)Cc1ccc(O)c2ncccc12 | 1 |  |  |  |  |  |  |  |  |  |  |
| Oc1ccc(CNCc2cccc(C(F)(F)F)c2)c2cccnc12 | 0.2 | 0.18 |  |  |  |  |  |  |  |  |  |
| Oc1ccc(CN(Cc2ccccc2C(F)(F)F)Cc2ccc(O)c3ncccc23)c2cccnc12 | 0.1 | < 0.2 | 0.046 | 0.274 | 0.093 | 0.088 | 0.179 | 0.064 | 0.21 | 0.078 |  |
| Oc1ccc(CN(Cc2cccc(C(F)(F)F)c2)Cc2ccc(O)c3ncccc23)c2cccnc12 | 2.2 | 2 | 0.038 | 0.167 | 0.094 | 0.03 | 0.037 | 0.036 | 0.057 | 0.065 |  |
| Cc1ccc(CNCc2ccc(O)c3ncccc23)cc1 |  | > 10 |  |  |  |  |  |  |  |  |  |
| Oc1ccc(CNCc2ccccc2)c2cccnc12 | > 1 |  |  |  |  |  |  |  |  |  |  |
| Oc1ccc(CN(Cc2ccc(O)c3ncccc23)Cc2ccc(O)c3ncccc23)c2cccnc12 | > 10 | > 10 |  |  |  |  |  |  |  |  |  |
| CC(C)(C)OC(=O)N(Cc1cccc(C(F)(F)F)c1)Cc1ccc(O)c2ncccc12 | 1 | > 10 |  |  |  |  |  |  |  |  |  |
| Oc1ccc(CN(Cc2cccs2)Cc2ccc(O)c3ncccc23)c2cccnc12 | 0.002 | < 0.2 | 0.027 | 0.089 | 0.04 | 0.035 | 0.044 | 0.035 | 0.088 | 0.085 |  |
| Oc1ccc(CNCc2ccc(C(F)(F)F)cc2)c2cccnc12 | 10 | > 10 |  |  |  |  |  |  |  |  |  |
| COc1ccc(CN(Cc2ccc(C(F)(F)F)cc2)Cc2ccc(O)c3ncccc23)c2cccnc12 | > 10 |  |  |  |  |  |  |  |  |  |  |
| Oc1ccc(CN(Cc2ccc(OC(F)(F)F)cc2)Cc2ccc(O)c3ncccc23)c2cccnc12 | 0.1 |  |  |  |  |  |  |  |  |  |  |
| Oc1ccc(CN(Cc2ccc(C(F)(F)F)cc2)Cc2ccc(O)c3ncccc23)c2cccnc12 | 0.001 | < 0.2 | 0.008 | 4.3 | 0.01 | 0.034 | 0.066 | 0.01 | 0.099 | 0.044 | Activity (Nucleic Acid [5]): inactive; Activity (Nucleic Acid [6]): inactive; Activity (Nucleic Acid [7]): inactive; Activity (Nucleic Acid [8]): inactive; CC50 [9]: 0.07 µM; CC50 [10]: 0.033 µM |
| Cc1ccc(C(=O)NCc2ccc(O)c3ncccc23)cc1 | 1 | 10 |  |  |  |  |  |  |  |  |  |
| O=C(O)C1CCC(CN(Cc2ccc(O)c3ncccc23)Cc2ccc(O)c3ncccc23)CC1 (configuration not stated) | 1.1 |  | 0.661 | 4.34 | 0.422 | 9.46 | 9.94 | 2.86 | 9.76 | 3.73 |  |
| Oc1ccc(CN(Cc2cccc(I)c2)Cc2ccc(O)c3ncccc23)c2cccnc12 | 1 | 2 | 0.35 | 2.59 | 0.393 | 0.374 | 0.394 | 0.479 | 0.446 | 5.59 |  |
